Results as given in patent publication US20200188382A1, “PHARMACEUTICAL COMPOSITION FOR INDUCING PROGRAMMED CELL DEATH IN CANCER CELLS” (KYOTO UNIVERSITY, priority 2016, published 2020).

Key:
Type in all cases: cell-based
[1] = tested on: a plurality of cancer cell lines; assay: Antitumor effect on a plurality of cancer cell lines
[2] = tested on: Human cervical cancer cell line HeLa; assay: NO dependency of caspase 3 activation (NO scavenger / NO synthesis inhibitor), flow cytometry; conditions: FIG. 5
Protocol: It was confirmed that the activity of Caspase-3 above was NO-dependent, using two types of methods in which an NO scavenger and an NO synthesis inhibitor were used.
That is, first, the NO scavenger (0.2 mM) or NO synthesis inhibitor (4 mM) described above was added to cancer cells that were to be cultured under the following conditions, and the cancer cells were cultured for 1 hour, Compound 1 prepared as described above was added thereto such that the concentration of Compound 1 was 10 μM, the cancer cells were cultured for 15 hours, flow cytometry was then performed while a caspase 3 substrate and a membrane impermeable DNA stain were in contact therewith, and thus two-color dot plots were created.
(§1) Cancer cells: Human cervical cancer cell line HeLa
(§2) Nutrient sources of culture medium: MEM (No Glucose) containing 0.1% Galactose and 5% FBS
Culture time after NO scavenger and NO synthesis inhibitor were added: 1 hour at 37° C.
NO scavenger: Carboxy-PTIO (cPTIO)
NO synthesis inhibitor: L-NAME (NO synthatase inhibitor)
Culture time after Compound 1 or DMSO was added: 15 hours
Caspase 3 substrate: NucView (trademark, Biotium) 488
Membrane impermeable DNA stain: DRAQ7 (trademark, BioStatus)

[3] = tested on: Human cervical cancer cell line HeLa; assay: Programmed cell death under glucose starvation, WST-8 assay; conditions: 16 hours at 37° C., MEM with 0.1% Glucose or 0.1% Galactose (No Glucose) and 5% FBS, FIG. 6
Protocol: It was confirmed that programmed cell death of cancer cells by Compound 1 was facilitated under glucose starvation.
Specifically, the nutrient source of a culture medium used when Compound 1 was applied to cancer cells was set to either glucose (Glc) or galactose (Gal), cancer cells were cultured for 16 hours, and the survival rate of cancer cells was measured using WST-8 assays.
as §1
Culture medium before Compound 1 was added: MEM containing 10% FBS
Culture medium after Compound 1 was added: MEM containing 0.1% Glucose and 5% FBS, or containing 0.1% Galactose and 5% FBS (No Glucose)
Culture time after Compound 1 was added: 16 hours at 37° C.

[4] = tested on: Human cervical cancer cell line HeLa; assay: Antitumor activity: number of living cells by CFSE-DA staining and WST-8 assay; conditions: 5, 10, or 20 μM, 4 days at 37° C., MEM containing 5% FBS, CFSE-DA and WST-8, FIGS. 2 and 3
Protocol: The antitumor effect on cancer cells was confirmed through measurement of the number of living cells using two methods.
Specifically, Compound 1 prepared as described above was added to cancer cells that were to be cultured under the following conditions such that the concentration of Compound 1 was 5, 10, or 20 μM, cancer cells were cultured for 4 days, and then an effect of Compound 1 on cancer cells was confirmed through fluorescence staining of living cells using CFSE-DA (FIG. 2) and WST-8 assays (FIG. 3).
as §1
Nutrient sources of culture medium: MEM containing 5% FBS
Culture time after Compound 1 or DMSO was added: 4 days at 37° C.
CFSE: 5- or 6-(N-Succinimidyloxycarbonyl)fluorescein 3′,6′-diacetate

[5] = tested on: Human cervical cancer cell line HeLa; assay: Induction of production of NO in cancer cells (DAF-FM DA, flow cytometry); conditions: 10 μM, 10 hours at 37° C., MEM (No Glucose) containing 0.1% Galactose and 5% FBS, FIG. 1
Protocol: The amount of nitric oxide (NO) produced in cancer cells was measured using a nitric oxide detection indicator. Specifically, Compound 1 prepared as described above was added to cancer cells that were to be cultured under the following conditions such that the concentration of Compound 1 was 10 μM, and the cancer cells were cultured for 10 hours, then flow cytometry was performed while the NO detection indicator was in contact therewith, and fluorescence intensity and cell number distribution were measured.
as §1, §2
Culture time after Compound 1 or DMSO was added: 10 hours at 37° C.
Nitric oxide detection indicator: Diaminofluorescein-FM diacetate (DAF-FM DA)

Structure (SMILES): O=S(=O)(Nc1cc(C(F)(F)F)ccc1N1CC[C@@H]2CCCC[C@H]2C1)c1ccc(F)cc1 [Compound 1]
- antitumor effect [1]: exhibited an antitumor effect on a plurality of cancer cell lines
- NO dependency of induced programmed cell death ([2]; 10 μM, cPTIO or L-NAME): NO-dependent
- ratio of cells with DRAQ7 negative and NucView 488 positive ([2]; Compound 1 at 10 μM alone, 15 hours, no glucose/0.1% Galactose, control 7.8%): 36.1%
- ratio of cells with DRAQ7 negative and NucView 488 positive under the presence of cPTIO ([2]; Compound 1 at 10 μM, 15 hours, after 1 hour with NO scavenger cPTIO 0.2 mM): 13.9%
- ratio of cells with DRAQ7 negative and NucView 488 positive under the presence of L-NAME ([2]; Compound 1 at 10 μM, 15 hours, after 1 hour with NO synthesis inhibitor L-NAME 4 mM): 22.7%
- programmed cell death (survival rate) in glucose vs galactose medium [3]: facilitated in a glucose depleted state
- antitumor effect (survival rate of cancer cells) [4]: antitumor effect of reducing the survival rate of cancer cells
- production of NO in cells [5]: enhanced
